The target in one experiment is T1, Gox0313 (Gluconobacter oxydans, UniProt Q5FU50).
T1 sequence (Q5FU50 1-343): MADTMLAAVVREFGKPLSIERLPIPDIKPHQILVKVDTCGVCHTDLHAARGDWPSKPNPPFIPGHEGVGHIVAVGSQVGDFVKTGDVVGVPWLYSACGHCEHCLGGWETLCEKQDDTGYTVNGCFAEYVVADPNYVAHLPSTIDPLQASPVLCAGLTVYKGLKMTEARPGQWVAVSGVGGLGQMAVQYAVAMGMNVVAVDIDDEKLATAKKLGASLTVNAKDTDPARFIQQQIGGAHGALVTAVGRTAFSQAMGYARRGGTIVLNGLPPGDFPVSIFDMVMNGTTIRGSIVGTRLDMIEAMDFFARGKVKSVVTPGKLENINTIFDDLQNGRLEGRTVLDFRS
Put plainly: Enzyme activity assay (rate of NAD(P)H decrease at 340 nm), Gox0313. As to conditions: Tab. 6, Gox0313; substrate reduction, cofactor NADH; 10 mM substrate, pH 7.0, 30 °C. The format is biochemical. How it is done:
(§1) Measurment of enzyme activity: NADPH-dependent alpha-ketocarbonyl reductases were assayed by a routine method used for NAD(P)-linked enzymes by recording the rate of decrease of NADPH at 340 nm (ε = 6.22 mM^-1 x cm^-1)) with substrates at 30 °C. The reaction mixture (1 ml) for reduction of alpha-ketocarbonyl substrates contained 10 mM substrate, 40 mM potassium phosphate buffer pH 7.0, 0.025 mM NAD(P)H , and the enzyme. Reactions were induced by addition of enzyme or substrate. One unit of enzyme activity was defined as the amount of enzyme catalyzing the conversion of 1 µmol of pyridine nucleotide per min at 30 °C.
(§2) NADPH-dependent α-ketocarbonyl reductases were assayed by a routine method used for NAD(P)-linked enzymes by recording the rate of decrease of NADPH at 340 nm (ε = 6.22 mM^-1.cm^-1) with substrates at 30 °C. The reaction mixture (1 ml) for reduction of alpha-ketocarbonyl substrates contained 10 mM substrate, 40 mM potassium phosphate buffer pH 7.0, 0.025 mM NADPH , and the enzyme. Reactions were induced by addition of enzyme or substrate. One unit of enzyme activity was defined as the amount of enzyme catalyzing the conversion of 1 µmol of pyridine nucleotide per min at 30 °C.
(§3) For each enzyme (Gox0313, Gox0502, Gox0644, Gox0646, Gox1615, Gox2107, and Gox2684 respectively), fresh enzyme preparations were used to validate the substrate spectrum and the kinetic activity. […] Purified NAD(P)-dependent oxidoreductases were assayed at 30 °C by a routine method used for NAD(P)-linked enzymes by recording the rate of decrease of NAD(P)H at 340 nm (ε = […]) with substrates capable of reduction reactions. The standard reaction mixture (1 ml) for the reduction reactions of substrates contained 10 mM substrate, 40 mM potassium phosphate buffer (K-phosphate buffer) pH 7.0, 0.05 mM NAD(P)H, and the enzyme unless otherwise noted. Reactions were induced by addition of enzyme or substrate. One unit of enzyme activity was defined as the amount of enzyme catalyzing the conversion of 1 µmol of pyridine nucleotide per min at 30 °C. Measurement of the protein content was performed by the method of Bradford in Anal. Biochem. 72:248-254 (1976). Table 3: Summary of enzymatic activities with α-diketones, α-ketoaldehydes and /or α-ketoesters

A further experiment addresses T2, Gox1615 (Gluconobacter oxydans, UniProt Q5FQJ0).
T2 sequence (Q5FQJ0 1-332): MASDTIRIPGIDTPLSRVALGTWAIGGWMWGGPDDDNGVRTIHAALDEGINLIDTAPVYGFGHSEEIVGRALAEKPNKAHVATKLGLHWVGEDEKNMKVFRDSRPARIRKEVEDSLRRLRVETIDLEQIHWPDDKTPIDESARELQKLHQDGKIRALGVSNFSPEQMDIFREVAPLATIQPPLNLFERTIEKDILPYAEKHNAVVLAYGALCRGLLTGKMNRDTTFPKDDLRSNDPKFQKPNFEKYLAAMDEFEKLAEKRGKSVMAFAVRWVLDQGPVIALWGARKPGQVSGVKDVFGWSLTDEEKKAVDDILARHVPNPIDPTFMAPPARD
Put plainly: Enzyme activity assay (rate of NAD(P)H decrease at 340 nm), Gox1615. Type of experiment: biochemical. Particulars: Tab. 5, Gox1615; cofactor NADPH; 10 mM substrate, pH 7.0, 30 °C. How it is done:
as §1, §2, §3

In experiment [1] the target is T3, Gox2107 (Gluconobacter oxydans, UniProt Q5FP53). The experiment can be described thus: Enzyme activity assay (rate of NAD(P)H decrease at 340 nm), Gox2107. The format is biochemical. How it is done:
as §1, §2, §3

Another experiment concerns the target T4, Gox2684 (Gluconobacter oxydans, UniProt Q5HXK5).
T4 sequence (Q5HXK5 1-357): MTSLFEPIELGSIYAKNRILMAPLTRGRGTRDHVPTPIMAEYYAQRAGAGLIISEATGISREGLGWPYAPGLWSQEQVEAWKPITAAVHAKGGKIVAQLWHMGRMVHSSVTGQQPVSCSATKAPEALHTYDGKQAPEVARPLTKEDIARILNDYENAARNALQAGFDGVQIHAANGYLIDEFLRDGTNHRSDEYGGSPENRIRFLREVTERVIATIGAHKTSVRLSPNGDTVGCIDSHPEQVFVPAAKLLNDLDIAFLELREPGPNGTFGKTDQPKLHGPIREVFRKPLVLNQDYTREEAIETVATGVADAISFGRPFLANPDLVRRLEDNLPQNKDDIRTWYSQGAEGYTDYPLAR
Put plainly: Enzyme activity assay (rate of NAD(P)H decrease at 340 nm), Gox2684. Type of experiment: biochemical. As to conditions: Tab. 8, GOX2684; cofactor NADPH; 10 mM substrate, pH 7.0, 30 °C. As to the method: as §1, §2, §3

For experiment [2], the target named is T3, Gox2107. The experiment can be described thus: Enzyme kinetics (Lineweaver-Burk plots), Gox2107. The format is biochemical. As to conditions: NADPH-dependent reduction. As to the method:
Determination of pH and temperature optima and enzyme kinetics: The optimum pH for enzyme activities was determined by a modified method of Salusjärvi, T. et al., Appl. Microbiol. Biotechnol. 65:306-314 (2004) using the following buffer system (50 mM final concentration each): sodium acetate pH 4.5 - 6.5, potassium phosphate pH 6.5 - 8.0, Tris-HCl pH 8.0 - 10. Temperature optima for the biocatalysts were determined under standard reaction conditions at temperatures ranging from 20 - 80 °C. The Michaelis constant (Km) for the proteins was determined from purified enzyme by Lineweaver-Burk plots. Assays were performed at optimum pH for each enzyme and at 30 °C using the top substrate and a targeted substrate. The Km for each substrate was calculated using concentrations of 0.0025 to 10 mM, and the Km NAD(P)H and NAD(P) was calculated using concentrations of 0.01 to 0.5 mM
The Michaelis constants were determined from purified enzyme by Lineweaver-Burk plots. The Km and Vmax values for the substrates were calculated using concentrations of 0.025 to 10 mM, The optimal pH values and temperatures for enzyme activities are also shown in Tab. 11. Tab. 11: Summary of kinetic parameters

For experiment [3], the target named is T5, Gox0502 (Gluconobacter oxydans, UniProt Q5FTL6).
T5 sequence (Q5FTL6 1-361): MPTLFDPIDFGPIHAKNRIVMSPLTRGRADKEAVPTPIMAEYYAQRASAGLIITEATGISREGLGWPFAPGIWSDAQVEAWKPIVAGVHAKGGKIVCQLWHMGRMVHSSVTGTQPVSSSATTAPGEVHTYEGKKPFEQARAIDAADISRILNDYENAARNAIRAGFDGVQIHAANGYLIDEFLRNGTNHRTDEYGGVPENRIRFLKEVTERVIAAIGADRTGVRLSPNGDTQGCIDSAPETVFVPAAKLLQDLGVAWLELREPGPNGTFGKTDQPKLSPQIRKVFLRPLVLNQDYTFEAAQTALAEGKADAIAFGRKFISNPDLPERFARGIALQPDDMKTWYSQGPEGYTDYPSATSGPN
The experiment can be described thus: Enzyme kinetics (Lineweaver-Burk plots), Gox0502. Particulars: NADPH-dependent reduction.

Experiment [4] deals with T5, Gox0502. The experiment can be described thus: Enzyme activity assay (rate of NAD(P)H decrease at 340 nm), Gox0502. Particulars: Tab. 7, Gox0502; cofactor NADPH; 10 mM substrate, pH 7.0, 30 °C. Type of experiment: biochemical. Also noted: Strep-tag II (N); made in house; host or cells: E. coli BL21 or E. coli DH5α (pASK-IBA5). As to the method: as §1, §2, §3
Another experiment addresses T6, Gox1122 (Gluconobacter oxydans, UniProt Q5FRV6).
T6 sequence (Q5FRV6 1-463): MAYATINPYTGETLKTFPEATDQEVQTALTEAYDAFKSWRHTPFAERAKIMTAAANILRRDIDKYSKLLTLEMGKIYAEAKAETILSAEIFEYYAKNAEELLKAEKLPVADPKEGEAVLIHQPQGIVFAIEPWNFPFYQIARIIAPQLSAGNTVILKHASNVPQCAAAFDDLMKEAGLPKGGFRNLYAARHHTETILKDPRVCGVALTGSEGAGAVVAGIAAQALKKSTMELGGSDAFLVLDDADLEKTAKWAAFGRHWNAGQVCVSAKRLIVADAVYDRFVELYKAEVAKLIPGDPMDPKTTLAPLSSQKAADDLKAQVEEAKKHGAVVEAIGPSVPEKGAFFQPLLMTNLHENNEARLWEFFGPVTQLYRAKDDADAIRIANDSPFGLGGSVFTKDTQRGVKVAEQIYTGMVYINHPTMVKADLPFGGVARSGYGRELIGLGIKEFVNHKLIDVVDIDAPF
As to conditions: using NADPH, pH range of 4-10. The source says:
The enzyme is used in a combined enzymatic reaction between the NADPH-dependent reductases (see above) that form α-hydroxy carbonyl compounds.

In the case of `C=CC(C)=O` [3-buten-2-one], the “Specific Activity” value at Gox0313 worked out at 1.9 U/mg; at Gox1615, 0.7 U/mg; at Gox2107 [1] (Tab. 7, Gox2107, cofactor NADPH, 10 mM substrate, pH 7.0, 30 °C), 120 U/mg; at Gox0502 [4], 21 U/mg. This compound displayed an activities on Gox2107 [1] (Gox2107, reduction with NADPH) of 119 µmol/mg/min. Also, on Gox2684, the “Specific Activities” value was 8.8 U/mg. In addition, the Vmax on Gox2107 [2] turned out to be 119 U/mg protein; on Gox0502 [3], 21 U/mg protein.
Consider `CC(=O)O` [acetic acid], for which, at Gox1122, the “reverse reduction reaction (result in words)” value is on record as “No reverse reduction reaction”.

The values above are taken from patent EP2119770B1, “Production of alpha-oxyfunctionalized carbonyl compounds” (priority 2008, dated 2009).
